Where two headings read alike, the source gives them in different places. Each block holds one compound with its values, some of them ahead of it.
Assays:
[1] = test system: cultured human mast cells (CHMC); assay: CHMC low cell density IgE activation: tryptase and LTC4 assays; format: cell-based; conditions: Homo sapiens, Mast cell, Low Density CHMC, anti-IgE activation
How it was run: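 Cultured human mast cells at low density (1000-1500 per well) rested 1 h at 37° C, then stimulated with anti-IgE for 30 min at 37° C. Supernatant tryptase measured with fluorogenic substrate (30 min, room temperature); LTC4 quantified by ELISA on diluted supernatant.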

[2] = test system: bone marrow derived mast cells (BMMC); assay: BMMC high cell density IgE activation: degranulation (hexosiminidase, histamine), leukotriene (LTC4) and cytokine (TNFalpha, IL-6) assays; format: cell-based; conditions: Mus musculus, anti-IgE activation
[3] = test system: cultured human mast cells (CHMC); assay: CHMC low cell density ionomycin activation: tryptase assay; format: cell-based; conditions: Homo sapiens, Mast cell, Low Density CHMC, ionomycin activation, tryptase readout; read-out: CHMC Ionomycin Tryptase
Jurkat cells = assay: Jurkat toxicity: Cell Titer Glo assay; format: cell-based; conditions: Homo sapiens, 18 hours
Protocol: Seed 50 μl cells (1×10^6/ml) into each well containing 50 μl compound. […] Shake plates for 1 minute to mix cells and compound. Incubate plates at 37° C. […] Next day, harvest 50 μl cells from each well, add to 50 μl Cell Titer Glo reagent ([…]). Shake plates for 1 minute. Read on luminometer.

[4] = Oral bioavailability / pharmacokinetics in rats; format: in vivo; conditions: rats
Protocol: Over 50 2,4-pyrimidinediamine compounds of the invention were tested for oral bioavailability. For the study, compounds were dissolved in various vehicles (e.g. PEG 400 solution and CMC suspension) for intravenous and oral dosing in the rats. Following administration of the drug, plasma samples were obtained and extracted. The plasma concentrations of the compounds were determined by high performance liquid chromatography/tandem mass spectrometry (LC/MS/MS) methods. Pharmacokinetic analyses were performed based on the plasma concentration data. The pharmacokinetic parameters of interest include Clearance (CL), Volume of distribution at steady-state (Vss), terminal half-life (t1/2), and oral bioavailability (% F).

[5] = test system: cultured human mast cells (CHMC); assay: CHMC high cell density IgE activation: degranulation (hexos, tryptase, histamine), leukotriene (LTC4) and cytokine (TNFalpha, IL-13) assays; format: cell-based; conditions: anti-IgE activation
Protocol: After sensitizing, cells are counted, pelleted (1000 rpm, 5-10 minutes), and resuspended at 1-2×10^6 cells/ml in MT buffer. Add 100 ul of cell suspension to each well and 100 ul of compound dilutions. The final vehicle concentration is 0.5% DMSO. Incubate at 37° C. (5% CO2) for 1 hour. After 1 hour of compound treatment, stimulate cells with 6× anti-IgE. Mix wells with the cells and allow plates to incubate at 37° C. (5% CO2) for one hour. After 1 hour incubation, pellet cells (10 minutes, 1000 RPM) and collect 200 ul per well of the supernatant, being careful not to disturb pellet. Place the supernatant plate on ice. During the 7-hour step (see next) perform tryptase assay on supernatant that had been diluted 1:500. Resuspend cell pellet in 240 ul of CM media containing 0.5% DMSO and corresponding concentration of compound. Incubate CHMC cells for 7 hours at 37° C. (5% CO2). After incubation, pellet cells (1000 RPM, 10 minutes) and collect 225 ul per well and place in −80° C. until ready to perform ELISAS. ELISAS are performed on appropriately diluted samples (determined empirically for each donor cell population so that the sample measurement falls within the standard curve) following the supplier's instructions.

[6] = biological target: FcγRI receptor-mediated degranulation; assay: FcγRI-mediated degranulation (activation with anti-human IgG Fab fragment); conditions: cells not primed with IgE, activated with rabbit anti-human IgG Fab fragment
[7] = Mouse model of allergic asthma (ovalbumin); format: in vivo
From the text: Mice are sensitized to ovalbumin (chicken protein) in the presence of an adjuvant (Alum) by the intraperitoneal route on day 0 and day 7. One week later, mice are challenged intranasally with ovalbumin on Days 14, 15 and 16 (more stringent model) or on Day 14 (less stringent model). This sensitization and challenge regimen leads to airway hyperresponsiveness and inflammation in the lungs, which are two dominant characteristics of human allergic asthma. In the mouse model, the in vivo airway responses are measured using a whole body plethysmograph which determines the PENH (enhanced Pause, Buxco Electronics). The PENH is a dimensionless value comprised of the peak inspiratory flow (PIF), peak expiratory flow (PEF), time of inspiration, time of expiration and relaxation time, and is considered a validated parameter of airway responsiveness. Responses to allergen challenge (OVA) are compared with animals challenged with saline only. Twenty-four hours after challenge, mice are exposed to increasing doses of methacholine (muscarinic receptor agonist) which results in smooth muscle contraction. […] In addition, a cellular infiltrate in the airway is observed in ovalbumin challenged mice when compared with the saline challenged mice. This cellular infiltrate is mainly characterized by eosinophils, but a smaller influx of neutrophils and mononuclear cells is also present.
The use of this model for the evaluation of small molecule inhibitors of mast cell degranulation has been validated is several ways. First, using mast cell deficient mice (W/W^v) it has been shown that the ovalbumin-induced responses are dependent upon the presence of mast cells.

[8] = test system: basophils in whole human peripheral blood; assay: Basophil ionomycin activation: histamine release assay; format: cell-based
Protocol: Assays for ionomycin-induced basophil cell degranulation were carried out as described for the Basophil IgE or Dustmite Activation Assay (Section 6.4.6, supra), with the exception that following incubation with compound, cells were stimulated with 20 μl of 2 μM ionomycin.

[9] = test system: IgE-induced degranulation of tissue mast cells; assay: Mouse model of passive cutaneous anaphylaxis (PCA); format: in vivo; conditions: oral route in a PEG-based formulation, data not shown
Protocol: This model provides a direct measure of IgE-induced degranulation of tissue mast cells. In this model, IgE primed animals are exposed to an allergen challenge, and the change in permeability of dermal vasculature that results from histamine release from mast cells is measured by change in the amount of dye leakage into surrounding tissue. Inhibition of mediator release by compounds that modulate mast cell degranulation is easily measured by extracting the dye from the tissue.
In the PCA assay mice are passively sensitized by intradermal injection with anti-dinitrophenol (DNP) IgE antibodies (Day −1). At predetermined times animals are treated with the test agent (Day 0). The modulatory effect of the agent on cutaneous mast cell degranulation is measured following intravenous injection of DNP conjugated to human serum albumin (HSA-DNP), together with Evans blue dye. The resulting cross-linking of the IgE receptor and subsequent mast cell degranulation-induced increase in vascular permeability is determined by measuring the amount of dye extravasation into the tissue. Dye is extracted from the tissue by formamide, and the absorbance of this extract is read at 620 nm.

[10] = tryptase readout, read-out: CHMC anti-IgE Tryptase
[11] = IL-6 release, read-out: BMMC anti-IgE IL-6 IC50
[12] = LTC4 release, read-out: BMMC anti-IgE LTC4 IC50
[13] = TNF-alpha release, read-out: BMMC anti-IgE TNF-alpha IC50
[14] = hexosaminidase release, read-out: BMMC anti-IgE hexos IC50
[15] = histamine release, read-out: BMMC anti-IgE histamine IC50
[16] = LTC4, read-out: CHMC high density LTC4
[17] = TNF-alpha, read-out: CHMC high density TNF-alpha
[18] = hexosaminidase release, read-out: CHMC high density hexos
[19] = histamine release, read-out: CHMC high density histamine
[20] = tryptase release, read-out: CHMC high density tryptase

SMILES: Cn1ncc2cc(Nc3ncc(F)c(Nc4ccc5c(c4)OCCO5)n3)ccc21 [Compound R935193, N4-(3,4-Ethylenedioxyphenyl)-5-fluoro-N2-(1-methyl-indazoline-5-yl)-2,4-pyrimidinediamine]
- oral bioavailabilities and half-lives (in words) [4]: good oral bioavailabilities and half-lives in rats

SMILES: OCCCn1ncc2cc(Nc3ncc(F)c(Nc4ccc(Cl)c(Cl)c4)n3)ccc21 [Compound R935391]
- oral bioavailabilities and half-lives (in words) [4]: good oral bioavailabilities and half-lives in rats

SMILES: NC12OCCON1C(Nc1ccc3oc(CO)cc3c1)=NC=C2F (stereo not shown) [Compound R926696, N4-(3,4-Ethylenedioxy)-5-fluoro-N2-[2-(hydroxymethyl)benzofuran-5-yl]-2,4-pyrimidinediamine]
- IC50 [1, 10]: 309 nM
- IC50 ([5]; IL-13, read-out: CHMC high density IL-13): 1770 nM
- IC50 [5, 16]: < 1100 nM
- IC50 [5, 17]: < 1100 nM
- IC50 [5, 18]: < 1100 nM
- IC50 [5, 19]: < 1100 nM
- IC50 [5, 20]: < 1100 nM
- IC50 [3]: > 10000 nM
- IC50 (Jurkat cells): > 5000 nM

SMILES: C[C@@H]1C[C@H]2[C@@H]3CCC4=CC(=O)C=C[C@]4(C)[C@@]3(F)[C@@H](O)C[C@]2(C)[C@@]1(O)C(=O)CO [dexamethasone, reference compound]
- methacoline-induced bronchocontriction ([7]; model validation): inhibitory effect

SMILES: O=C(O)c1cc(=O)c2c(OCC(O)COc3cccc4oc(C(=O)O)cc(=O)c34)cccc2o1 [Cromolyn, reference compound]
- ovalbumin-induced airway hyperresponsiveness and inflammation ([7]; model validation, data not shown): able to block the ovalbumin-induced airway hyperresponsiveness and inflammation

SMILES: CCCC1O[C@@H]2C[C@H]3[C@@H]4CCC5=CC(=O)C=C[C@]5(C)[C@H]4[C@@H](O)C[C@]3(C)[C@]2(C(=O)CO)O1 (stereo partly shown) [budesonide, reference compound]
- methacoline-induced bronchocontriction ([7]; model validation): inhibitory effect

SMILES: CNC(=O)COc1cccc(Nc2ncc(F)c(Nc3ccc4c(n3)NC(=O)CO4)n2)c1 [Compound R921304, 5-Fluoro-N2-(3-methylaminocarbonylmethyleneoxyphenyl)-N4-[2H-pyrido[3,2-b]-1,4-oxazin-3(4H)-one-6-yl]-2,4-pyrimidinediamine]
- ovalbumin-induced airway hyperresponsiveness to methacholine ([7]; intranasal, 10 consecutive days (Day 7 through Day 16), 20 mg/kg): able to inhibit the ovalbumin-induced airway hyperresponsiveness to methacholine
- airway responses in a mouse model of allergic asthma ([7]; summary): efficacious in inhibiting the airway responses

Further lines, with some results ahead:

- IC50 [1, 10]: 181 nM
- IC50 [2, 11]: < 220 nM
- IC50 [2, 12]: 1020 nM
- IC50 [2, 13]: 253 nM
- IC50 [2, 14]: < 220 nM
- IC50 [2, 15]: < 220 nM
- IC50 [3]: > 10000 nM
SMILES: Oc1cccc(Nc2nc(Nc3ccc4c(c3)N=CCO4)ncc2F)c1 [Compound R909241, N2-(1,4-Benzoxazin-6-yl)-5-fluoro-N4-(3-hydroxyphenyl)-2,4-pyrimidinediamine]
- IC50 (Jurkat cells): 3740 nM

- IC50 [1, 10]: 164 nM
- IC50 [2, 11]: < 220 nM
- IC50 [2, 12]: 288 nM
- IC50 [2, 13]: < 220 nM
- IC50 [2, 14]: < 220 nM
- IC50 [2, 15]: < 220 nM
- IC50 [3]: > 10000 nM
SMILES: Nc1cccc(Nc2ncc(F)c(Nc3ccc4c(c3)OCCO4)n2)c1 [Compound R950207, N2-(3-Aminophenyl)-N4-(3,4-ethylenedioxyphenyl)-5-fluoro-2,4-pyrimidinediamine]
- IC50 (Jurkat cells): > 4330 nM

- inhibition of FcγRI-mediated degranulation [6]: inhibit FcγRI-mediated degranulation
SMILES: CC1(C)Oc2ccc(Nc3ncc(F)c(Nc4ccc5c(c4)NC(=O)C(C)(C)O5)n3)cc2NC1=O [Compound R940350, N2,N4-[(2,2-Dimethyl-4H-benzo[1,4]oxazin-3-one)-6-yl]-5-fluoro-2,4-pyrimidinediamine]
- oral bioavailabilities and half-lives (in words) [4]: good oral bioavailabilities and half-lives in rats

- IC50 [8]: > 10000 nM
SMILES: CNC(=O)COc1cccc(Nc2ncc(F)c(Nc3cccc(O)c3)n2)c1 [Compound R926508, 5-Fluoro-N4-(3-hydroxyphenyl)-N2-[3-(N-methylamino)carbonylmethyleneoxyphenyl]-2,4-pyrimidinediamine]
- inhibition of the PCA response [9]: able to inhibit the PCA response

- IC50 [1, 10]: 149 nM
- IC50 [2, 11]: < 220 nM
- IC50 [2, 12]: 433 nM
- IC50 [2, 13]: 220 nM
- IC50 [2, 14]: < 220 nM
- IC50 [2, 15]: < 220 nM
- IC50 [3]: > 10000 nM
SMILES: CC(C)Oc1ccc(Nc2nc(Nc3cccc(OCCO)c3)ncc2F)cc1 [Compound R935156, 5-Fluoro-N2-[3-(2-hydroxyethoxy)phenyl]-N4-(4-isopropoxyphenyl)-2,4-pyrimidinediamine]
- IC50 (Jurkat cells): 4050 nM

- IC50 ([1]; LTC4 readout, read-out: CHMC anti-IgE LTC4): 78 nM
- IC50 [1, 10]: 250 nM
- IC50 [5, 16]: 474 nM
- IC50 [5, 17]: > 2000 nM
- IC50 [5, 18]: 889 nM
- IC50 [5, 19]: 1320 nM
- IC50 [5, 20]: 1090 nM
- IC50 [3]: 9180 nM
SMILES: CNC(=O)c1cc2cc(Nc3ncc(F)c(Nc4cccc(O)c4)n3)ccc2o1 [Compound R926493, 5-Fluoro-N4-(3-hydroxyphenyl)-N2-[2-(N-methylamino)carbonylbenzofuran-5-yl]-2,4-pyrimidinediamine]
- IC50 (Jurkat cells): > 4330 nM

- IC50 [1, 10]: 127 nM
- IC50 [2, 11]: 41 nM
- IC50 [2, 12]: 547 nM
- IC50 [2, 13]: 131 nM
- IC50 [2, 14]: 104 nM
- IC50 [2, 15]: 85 nM
- IC50 [3]: > 10000 nM
SMILES: OCCOc1cccc(Nc2ncc(F)c(Nc3ccc4c(c3)OCCO4)n2)c1 [Compound R935154, N4-(3,4-Ethylenedioxyphenyl)-5-fluoro-N2-[3-(2-hydroxyethoxy)phenyl]-2,4-pyrimidinediamine]
- IC50 (Jurkat cells): > 4330 nM

— patent publication US10828301B2, “2,4-pyrimidinediamine compounds and their uses” (Rigel Pharmaceuticals, Inc, priority 2002, dated 2020)
